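Grown in 96-well plates, cells were treated for 48 hours with each compound at five concentrations. Insufficient inhibition: endpoint recorded as highest concentration tested. Abbreviation: GI50, concentration required for 50% inhibition of growth. The concentration for full growth arrest is given as TGI.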
Assays:
Test in all cases: NCI-60 cell line screen, 48 h
[1] = system: 786-0 renal
[2] = system: A498 renal
[3] = system: A549 NSCLC
[4] = system: ACHN renal
[5] = system: BT-549 breast
[6] = system: CAKI-1 renal
[7] = system: CCRF-CEM leukemia
[8] = system: COLO 205 colon
[9] = system: DU-145 prostate
[10] = system: EKVX NSCLC
[11] = system: HCC-2998 colon
[12] = system: HCT-116 colon
[13] = system: HCT-15 colon
[14] = system: HOP-62 NSCLC
[15] = system: HOP-92 NSCLC
[16] = system: HS 578T breast
[17] = system: HT29 colon
[18] = system: IGROV1 ovarian
[19] = system: K-562 leukemia
[20] = system: KM12 colon
[21] = system: LOX IMVI melanoma
[22] = system: M14 melanoma
[23] = system: MALME-3M melanoma
[24] = system: MCF7 breast
[25] = system: MDA-MB-231 breast
[26] = system: MDA-MB-435
[27] = system: MOLT-4 leukemia
[28] = system: NCI-H226 lung
[29] = system: NCI-H23 lung
[30] = system: NCI-H460 lung
[31] = system: NCI-H522 lung
[32] = system: NCI/ADR-RES ovarian
[33] = system: OVCAR-3 ovarian
[34] = system: OVCAR-4 ovarian
[35] = system: OVCAR-5 ovarian
[36] = system: OVCAR-8 ovarian
[37] = system: PC-3 prostate
[38] = system: RPMI-8226 leukemia
[39] = system: RXF 393 renal
[40] = system: SF-268 CNS
[41] = system: SF-539 CNS
[42] = system: SK-MEL-2 melanoma
[43] = system: SK-MEL-28 melanoma
[44] = system: SK-MEL-5 melanoma
[45] = system: SK-OV-3 ovarian
[46] = system: SN12C renal
[47] = system: SNB-19 CNS
[48] = system: SNB-75 CNS
[49] = system: SW-620 colon
[50] = system: T-47D breast
[51] = system: TK-10 renal
[52] = system: U251 CNS
[53] = system: UACC-257 melanoma
[54] = system: UACC-62 melanoma
[55] = system: UO-31 renal
[56] = system: HL-60(TB) leukemia
[57] = system: SF-295 CNS
[58] = system: SR leukemia

## Nc1ccc(-c2ccc(-c3nc4ccccc4[nH]3)cc2)cc1
[1]
  GI50: 8.78 µM
  TGI: 84.9 µM
[2]
  GI50: 33.6 µM
  TGI: > 100 µM
[3]
  TGI: > 95.5 µM
[4]
  GI50: 13.6 µM
  TGI: > 92.8 µM
[5]
  GI50: 13.2 µM
  TGI: > 61.6 µM
[6]
  TGI: > 54.7 µM
[7]
  GI50: 2.77 µM
  TGI: > 78.7 µM
[8]
  GI50: 0.32 µM
[9]
  GI50: 10.6 µM
  TGI: > 100 µM
[10]
  GI50: 1.47 µM
  TGI: > 78.2 µM
[11]
  GI50: 0.105 µM
  TGI: 0.438 µM
[12]
  GI50: 2.45 µM
  TGI: > 100 µM
[13]
  GI50: 8.09 µM
  TGI: > 100 µM
[14]
  GI50: 3.83 µM
  TGI: 56.6 µM
[15]
  GI50: 18.6 µM
  TGI: 71.2 µM
[16]
  GI50: 31.1 µM
  TGI: > 100 µM
[17]
  GI50: 0.606 µM
  TGI: 21.6 µM
[18]
  GI50: 26.2 µM
  TGI: > 82.4 µM
[19]
  GI50: 0.117 µM
  TGI: > 100 µM
[20]
  GI50: < 0.0248 µM
  TGI: > 66.8 µM
[21]
  TGI: > 100 µM
[22]
  GI50: 0.0328 µM
  TGI: > 100 µM
[23]
  GI50: 7.19 µM
  TGI: > 52.7 µM
[24]
  GI50: 0.765 µM
  TGI: > 100 µM
[25]
  GI50: 29.6 µM
  TGI: > 100 µM
[26]
  GI50: < 0.0192 µM
  TGI: > 100 µM
[27]
  GI50: 9.94 µM
  TGI: > 58.2 µM
[28]
  GI50: 4.26 µM
  TGI: 40.9 µM
[29]
  GI50: 10.6 µM
  TGI: > 90.6 µM
[30]
  GI50: 0.196 µM
  TGI: > 65.1 µM
[31]
  GI50: 1.1 µM
  TGI: > 53.9 µM
[32]
  GI50: 21.3 µM
  TGI: > 76.3 µM
[33]
  GI50: 1.2 µM
  TGI: 40.1 µM
[34]
  GI50: 21.1 µM
  TGI: 79.9 µM
[35]
  GI50: > 75.9 µM
  TGI: > 100 µM
[36]
  GI50: 14.1 µM
  TGI: 97.5 µM
[37]
  GI50: 14.1 µM
  TGI: 56.8 µM
[38]
  GI50: 3.34 µM
  TGI: 39.9 µM
[39]
  GI50: 23.5 µM
  TGI: 82.9 µM
[40]
  GI50: 2.76 µM
  TGI: > 100 µM
[41]
  GI50: 0.208 µM
[42]
  GI50: 1.88 µM
  TGI: > 100 µM
[43]
  GI50: 2.08 µM
  TGI: > 100 µM
[44]
  GI50: 14.9 µM
  TGI: > 100 µM
[45]
  GI50: 46 µM
  TGI: > 100 µM
[46]
  GI50: 19.6 µM
  TGI: > 100 µM
[47]
  GI50: 18.4 µM
  TGI: > 100 µM
[48]
  GI50: 27.8 µM
  TGI: 69.4 µM
[49]
  GI50: < 0.0506 µM
  TGI: > 100 µM
[50]
  GI50: 3.89 µM
  TGI: > 100 µM
[51]
  TGI: > 100 µM
[52]
  GI50: 11.4 µM
  TGI: 44.5 µM
[53]
  GI50: 1.11 µM
  TGI: > 100 µM
[54]
  GI50: 0.61 µM
  TGI: 3.61 µM
[55]
  GI50: 10.5 µM
  TGI: > 100 µM

## CN(C)CCCC1(c2ccc(F)cc2)OCc2cc(-c3ccc4cc[nH]c4c3)ccc21 (stereo unspecified)
[1]
  GI50: 1.78 µM
  TGI: 3.41 µM
[3]
  GI50: 2.11 µM
  TGI: 4.57 µM
[4]
  GI50: 2.12 µM
  TGI: 4.82 µM
[5]
  GI50: 2.35 µM
  TGI: 7.62 µM
[6]
  GI50: 1.63 µM
  TGI: 3.11 µM
[7]
  GI50: 2.65 µM
  TGI: 7.12 µM
[8]
  GI50: 2.11 µM
  TGI: 4.68 µM
[9]
  GI50: 1.9 µM
  TGI: 3.46 µM
[10]
  GI50: 2.04 µM
  TGI: 5 µM
[11]
  GI50: 1.84 µM
  TGI: 3.48 µM
[12]
  GI50: 1.88 µM
  TGI: 3.57 µM
[13]
  GI50: 1.7 µM
  TGI: 3.14 µM
[56]
  GI50: 1.74 µM
  TGI: 3.77 µM
[14]
  GI50: 1.71 µM
  TGI: 3.71 µM
[15]
  GI50: 2.28 µM
  TGI: 7.9 µM
[16]
  GI50: 1.8 µM
  TGI: 4.27 µM
[17]
  GI50: 2.33 µM
  TGI: 5.93 µM
[18]
  GI50: 1.73 µM
  TGI: 3.61 µM
[19]
  GI50: 1.93 µM
  TGI: 4.08 µM
[20]
  GI50: 1.85 µM
  TGI: 3.42 µM
[21]
  GI50: 1.78 µM
  TGI: 3.27 µM
[22]
  GI50: 1.88 µM
  TGI: 3.82 µM
[23]
  GI50: 1.71 µM
  TGI: 3.32 µM
[24]
  GI50: 1.65 µM
  TGI: 3.24 µM
[25]
  GI50: 1.65 µM
  TGI: 3.22 µM
[26]
  GI50: 1.73 µM
  TGI: 3.23 µM
[27]
  GI50: 2.04 µM
  TGI: 4.34 µM
[28]
  GI50: 10.7 µM
  TGI: 29.3 µM
[29]
  GI50: 1.97 µM
  TGI: 4.11 µM
[30]
  GI50: 1.79 µM
  TGI: 3.49 µM
[31]
  GI50: 2.07 µM
  TGI: 4.49 µM
[32]
  GI50: 2.21 µM
  TGI: 5.31 µM
[33]
  GI50: 1.74 µM
  TGI: 3.35 µM
[34]
  GI50: 2.16 µM
  TGI: 4.72 µM
[35]
  GI50: 1.95 µM
  TGI: 4.3 µM
[36]
  GI50: 3.32 µM
  TGI: 13.8 µM
[37]
  GI50: 2.17 µM
  TGI: 5.36 µM
[38]
  GI50: 2.5 µM
  TGI: 6.04 µM
[39]
  GI50: 2.48 µM
  TGI: 7.56 µM
[40]
  GI50: 1.64 µM
  TGI: 3.26 µM
[57]
  GI50: 1.79 µM
  TGI: 3.31 µM
[41]
  GI50: 1.78 µM
  TGI: 3.23 µM
[42]
  GI50: 2.19 µM
  TGI: 4.72 µM
[43]
  GI50: 1.8 µM
  TGI: 3.36 µM
[44]
  GI50: 1.81 µM
  TGI: 3.25 µM
[45]
  GI50: 3.38 µM
  TGI: 12.9 µM
[46]
  GI50: 1.73 µM
  TGI: 3.56 µM
[47]
  GI50: 1.79 µM
  TGI: 3.67 µM
[48]
  GI50: 1.35 µM
  TGI: 3.54 µM
[58]
  GI50: 2.41 µM
  TGI: 5.41 µM
[49]
  GI50: 1.83 µM
  TGI: 3.64 µM
[50]
  GI50: 2.01 µM
  TGI: 5.17 µM
[51]
  GI50: 2.03 µM
  TGI: 4.09 µM
[53]
  GI50: 1.96 µM
  TGI: 3.91 µM
[54]
  GI50: 1.85 µM
  TGI: 3.77 µM
[55]
  GI50: 1.45 µM
  TGI: 2.82 µM

Source: PubChem BioAssay (NCI)
